# Source: publication PMC11912270, “Synthesis and SAR Studies of Acyl-Thiourea Platinum(II) Complexes Yield Analogs with Dual-Stage Antiplasmodium Activity” (ACS Medicinal Chemistry Letters, 2025)
# Where two headings read alike, the source gives them in different places.
# Experiments:
# PfNF54 ABS parasites = assay: SYBR Green I-based proliferative assay, PfNF54 ABS parasites; type: cell-based, Plasmodium falciparum; conditions: ABS, SYBR Green I, 96 h; mean ± S.E., N = 3 (no S.E.: N = 1)
# Method: (§1) The parasites were incubated under drug […]
# (§2) incubation, parasite survival was determined by adding equal volumes of parasite suspension (100 µL) and SYBR Green I lysis buffer (0.2% µL/mL of 10 000x SYBR Green I, 20 mM Tris-HCl, pH 7.5, 5 mM EDTA, 0.008% saponin (w/v) and 0.08% Triton x-100). This was incubated for 1 hour at room temperature in the dark. […]
# PfK1 ABS parasites = type: cell-based, Plasmodium falciparum; conditions: for IC50: ABS, SYBR Green I, 96 h, mean ± S.E.; for RI (resistance index): RI = PfK1 IC50/PfNF54 IC50
# Method: as §1, §2
# [1] = system: early-stage gametocytes (NF54-PfS16-GFP-Luc); assay: Luciferase reporter assay, early-stage gametocytes; type: cell-based, Plasmodium falciparum; conditions: for EG (% inhibition) 1 µM / EG (% inhibition) 5 µM: single biological repeat; for IC50: early (II/III) gametocytes, luciferase, 48 h, read-out: EG IC50
# Method: (§3) All the complexes were tested for their early- and late-stage gametocyte activity in a dual-point assay (1 μM and 5 μM). […]
# (§4) 1.5.In vitro activity against gametocyte stages
# (§5) PfNF54 gametocytes were prepared and isolated according to the method reported by Reader […]
# (§6) The in vitro gametocyte activity of the synthesized complexes was determined using a luciferase reporter line-based assay.
# (§7) NF54-PfS16-GFP-Luc parasites were used for the stage-specific assessment of gametocytocidal activity. Early-stage gametocyte (stage I-III) experiments were performed on day 5 (representing >90% of early-stage and late-stage gametocyte (stages IV/V) experiments were performed on day 10. In each experiment, assays were set up with the use of 2-3% […]
# (§8) Luciferase activity was determined in 30 µL parasite lysates by adding luciferin substrate (30 µL) (Promega Luciferase Assay System) at room temperature. […]
# [2] = system: late-stage gametocytes (NF54-PfS16-GFP-Luc); assay: Luciferase reporter assay, late-stage gametocytes; type: cell-based, Plasmodium falciparum; conditions: for LG (% inhibition) 1 µM / LG (% inhibition) 5 µM: single biological repeat
# Method: as §3, §4, §5, §6, §7, §8
# [3] = system: Chinese hamster ovary (CHO) cell line; assay: MTT cytotoxicity assay; type: cell-based; conditions: cytotoxicity, MTT, 48 h; N, n = 1, 3; read-out: CHO IC50
# Method: 1.6.In vitro cytotoxicity assay
# A 3-(4,5-dimethylthiazol-2-yl)-2,5-diphenyltetrazoliumbromide (MTT) assay was used to screen the metal complexes against the mammalian Chinese hamster ovarian (CHO) cell line.
# A stock solution of each compound (2 mg/mL) in DMSO was prepared and kept at -20 °C until needed. Emetine was used as a reference drug. A starting concentration of 100 µg/mL was used, and serially diluted ten-fold using a complete medium to give the lowest concentration of 0.001 µg/mL (6 dilutions). The plates containing the CHO cells under drug pressure were […]
# Plates containing the drug and cell suspension were developed by adding 25 μL of sterile MTT (Thermo Fisher Scientific) (25 µL) to each well, followed by 4 h […]
# of incubation at room temperature in the dark. The plates were then centrifuged, and the supernatant was removed via aspiration. Sample absorbance was read at a wavelength of 540 […]
# analysis via GraphPad Prism v.4.0 software. The IC50 values were determined for each compound were determined from the dose-response curves. […]
# [4] = Single-point microsomal metabolic stability, mouse; type: in vitro ADME; conditions: for Microsomal metabolic stability (% remaining after 30 min) Mouse: mouse liver microsomes, 1 µM
# Method: (§9) 1.8. Microsomal metabolic stability studies […]
# (§10) rat IGS, Xenotech), and mouse (male mouse CD1, Xenotech) liver microsomes (0.4 mg/ml) for 30 min at 37 °C. Reactions were quenched by adding ice-cold acetonitrile containing […]
# (§11) disappearance of the parent compound. Half-life, clearance, and hepatic excretion ratios were determined using standard equations.6,7 Propranolol. […]
# [5] = Single-point microsomal metabolic stability, human; type: in vitro ADME; conditions: human liver microsomes; for Microsomal metabolic stability (% remaining after 30 min) Human: 1 µM
# Method: as §9, §10, §11
# Cyclic voltammetry = type: physicochemical; conditions: for Epa1: anodic peak potential; for Epa1 / Epc1: 0.1 V/s; for Epc1: cathodic peak potential; for Epc2: second nonreversible reduction
# Excerpt: It is known that Fe^2+/Fe^3+ redox chemistry has an important role in the bioactivity of ferrocene derivatives.[33] The production of reactive oxygen species (ROS) is one of the modes of action of ferroquine and other ferrocene derivatives[34] and is linked to the correlation between their bioactivity and electrochemical behavior. We determined whether a similar correlation could be made for the mixed-ligand platinum(II) complexes reported herein given that metal centers have the potential to be oxidized and reduced. The electrochemistry of the complexes was studied using cyclic voltammetry (CV), which uses a triangular potential waveform. The CV experiments were performed in either dry MeOH or DMF containing tetrabutylammonium chloride (TBACl) as the supporting electrolyte. The working electrode was glassy carbon with a platinum wire as the counter electrode and Ag/AgCl as the reference. The anodic (Epa) and cathodic (Epc) peak potentials at 0.1 V/s and half-wave potentials (E1/2) were measured (Table 3). All of the tested complexes undergo reversible one-electron Pt^2+/Pt^+ reductions (Figures S38–S46). Complexes C2, C4, and C8 undergo a second nonreversible reduction (Epc2), which is most likely ligand-based and linked to reductions of the substituent on the bpy. Looking at SAR2, the more electron-withdrawing the substituent, the […] the E1/2 (V vs Fe/Fe^+) value was. This trend was expected, as a more electron-withdrawing substituent reduces the electron density around the metal center, making it easier for the metal to be reduced from Pt^2+ to Pt^+. […] This is also the case for other bpy-containing platinum(II) complexes that only undergo reductions.[35],[36] […]
# For the cyclic voltammetry experiments a solution of the test compound (1 x 10-3) in DMSO (3 mL) is added to the electrolyte solution (0.1 M tetrabutylammonium chloride (TBACl) in DMSO). The electrochemical measurements were obtained using a Basi Epsilon Eclipse Electrochemical Analyzer Potentiostat and the CV graphs were generated using Excel. The working electrode was glassy carbon (GC) with platinum wire as the counter electrode (CE) and Ag/AgCl as the reference. […]
# ABS parasites = assay: Dual point activity against ABS parasites; type: cell-based, Plasmodium falciparum; conditions: single biological repeat
# Excerpt: Table S2: Dual point activity of platinum(II) complexes against ABS parasites, early- and late-
# stage gametocytes. Values are averaged from technical triplicates performed for a single
# PfNF54 = assay: 72 h pLDH assay, PfNF54 (precursor compounds); type: cell-based, Plasmodium falciparum
# Method: Lastly, the pharmacological effect of substitution with a methyl group at different positions on the bpy ring was determined (SAR4). Changing from the 4,4′-positions (C2) to the 5,5′-positions (C14) improved the PfNF54 activity by 5-fold, whereas changing to the 6,6′-positions (C15) decreased the activity by 2-fold.
# [6] = Kinetic solubility by HPLC (pH 6.5); conditions: for Aqueous solubility pH 6.5: kinetic, HPLC
# Method: 1.7. Kinetic solubility by HPLC (pH 6.5)
# Solubility was measured at pH 6.5 using an adapted miniaturized shake-flask method, in 96-well plate format.4,5 Briefly, 4 µL of a 10 mM stock in DMSO was added to a 96-well plate and evaporated using a GeneVac system. Phosphate buffer pH 6.5 was then added to the wells […]
# At the end of this incubation, the […]
# in the analysis plate. Analysis was then performed by HPLC-DAD and the solubility of each sample was determined from the corresponding calibration curve. […]
# [7] = late (IV/V) gametocytes, luciferase, 48 h, read-out: LG IC50
# [8] = half-wave potential corrected to ferrocene
SMILES,IC50 (PfNF54 ABS parasites) [µM],IC50 (PfK1 ABS parasites) [µM],EG (% inhibition) 1 µM [1] [% inhibition],EG (% inhibition) 5 µM [1] [% inhibition],IC50 [1] [µM],LG (% inhibition) 1 µM [2] [% inhibition],LG (% inhibition) 5 µM [2] [% inhibition],"IC50 [2, 7] [µM]",IC50 [3] [µM],Microsomal metabolic stability (% remaining after 30 min) Mouse [4] [% remaining],Microsomal metabolic stability (% remaining after 30 min) Human [5] [% remaining],Epa1 (Cyclic voltammetry),Epc1 (Cyclic voltammetry),ABS (% inhibition) 1 µM (ABS parasites) [% inhibition],ABS (% inhibition) 5 µM (ABS parasites) [% inhibition],RI (resistance index) (PfK1 ABS parasites),Aqueous solubility pH 6.5 [6] [μM],E1/2 (Cyclic voltammetry; half-wave potential),E1/2 (Cyclic voltammetry; [8]),Epc2 (Cyclic voltammetry),further results
OCCN(CCO)C1=NC(c2ccccc2)=[O+][Pt-2]2([S]1)[n+]1ccccc1-c1cccc[n+]12.[Cl-] [C3],0.142 ± 0.012,0.184 ± 0.022,26.9,0.0,> 20,14.8,39.8,> 20,> 50,75,72,–1.210 V,–1.014 V,68.7,103.1,,,,,,
"[Cl][Pt-2]([Cl])([Cl])[Cl].[K+].[K+] [K2PtCl4, potassium tetrachloroplatinate]",,,,,,,,,> 50,,,,,,,,,,,,"inhibition of Pf proliferation (PfNF54; maximum concentration of 5 μM, PfNF54): did not inhibit Pf proliferation; IC50 (PfNF54; precursor compounds, 72 h pLDH assay, read-out: PfNF54 IC50): > 5 µM"
COc1cc[n+]2c(c1)-c1cc(OC)cc[n+]1[Pt-2]21[O+]=C(c2ccccc2)N=C(N(CCO)CCO)[S]1.[Cl-] [C4],0.266 ± 0.029,0.164 ± 0.007,6.8,9.1,> 20,14.8,54.4,> 20,> 50,88,63,–1.136 V,–1.064 V,67.1,99.8,0.6,195,–1.100 V vs Ag/Ag^+,–1.640 V vs Fe/Fe^+,–1.515 V vs Ag/Ag^+,
Cc1cc[n+]2c(c1)-c1cc(C)cc[n+]1[Pt-2]21[O+]=C(c2ccccc2)N=C(N(CCO)CCO)[S]1.[Cl-] [C2],1.42 ± 0.276,0.541 ± 0.044,19.9,7.9,> 20,11.3,25.5,> 20,> 50,72,70,–1.074 V,–1.016 V,70.9,104.0,0.4,170,–1.045 V vs Ag/Ag^+,–1.585 V vs Fe/Fe^+,–1.084 V vs Ag/Ag^+,
"CS(=O)(=O)c1ccc(-c2cnc(N)c(-c3ccc(C(F)(F)F)nc3)c2)cc1 [MMV390048, reference compound]",,,,,,,,,,,,,,,,,,,,,"solubility at 24 h ([6]; phosphate buffer, 25 °C, pH 6.5, aqueous buffer, thermodynamic from solid): < 5 µM; remaining at 0.5 h, 1 µM ([4]; male, CD1, mouse liver microsomes, 30 min, read-out: Microsomal metabolic stability (% remaining after 30 min) Mouse): > 95%; remaining at 0.5 h, 1 µM ([5]; both sexes, 30 min, read-out: Microsomal metabolic stability (% remaining after 30 min) Human): > 95%"
OCCN(CCO)C1=NC(c2ccccc2)=[O+][Pt-2]2([S]1)[n+]1ccc(C(F)(F)F)cc1-c1cc(C(F)(F)F)cc[n+]12.[Cl-] [C8],> 5,,26.2,50.0,> 20,80.6,85.8,0.38,> 50,46,47,–0.710 V,–0.607 V,10.6,29.9,,,,–1.076 V vs Fe/Fe^+,–1.272 V vs Ag/Ag^+,"IC50 ([2]; gametocyte stage not specified, read-out: gametocidal activity IC50): < 5 µM"
